This is an account of results in patent US8563729B2, “Thienopyridone derivatives as AMP-activated protein kinase (AMPK) activators” (Merck Patent GmbH, priority 2008, dated 2013).

One experiment deals with H-2 Kb cells. The experiment can be described thus: Glucose uptake in H-2 Kb cells (in vitro cellular test). The format is cell-based, mouse. The note with it: H-2 Kb cells differentiated in muscle, 4 hours incubation, 2-deoxy-D-[1,2 3H] glucose uptake 10 min. As for the experimental part:
Glucose Uptake in H-2 Kb Cells (In Vitro Cellular Test)
The following cellular test allows the determination of the effect of AMPK activators such as compounds of formula (I) onto glucose uptake in a muscle cellular model.
H-1-2 Kb cells derived from heterozygous H-2 Kb tsA58 transgenic mouse were grown in 24-well in plates coated with matrigel and were cultured at 33° C. for 4 days under permissive conditions, as described previously by Fryer et al. (Diabetes 49 (12): 1978, 2000).
For differentiation in muscle, cells were switched to non-permissive culture conditions (37° C. in the absence of interferon-γ). After 3 days, cells were incubated for 4 hours in DMEM 1 g/l glucose culture medium containing different concentrations of the tested molecules. Then glucose uptake was measured by incubating the cells for 10 min with radiolabelled 2-deoxy-D-[1,2 ^3H] glucose. Glucose uptake was terminated by rapidly washing the plates 2 times with ice-cold NaCl 0.9%. The cells were then solubilized in 0.1N NaOH for 30 min. Radioactivity was determined by liquid scintillation counting.
(§1) N°: Number of the molecule
Activity (table III): Concentration of compound (I) for a glucose uptake equal or higher to glucose uptake induced by insulin (170 nM)
^++ or **concentration of compound (I) ≦10 micro Molar
^+ or *concentration of compound (I) >10 micro Molar

The target of experiment [1] is T1, AMPK protein (recombinant α1β1γ2) (Homo sapiens, UniProt Q13131+Q9Y478).
T1 construct: made in house; host or cells: E. coli
The experiment is described as follows: AMPK enzymatic activity (Delfia, AMARA peptide substrate). The format is biochemical. The note with it: compound 30 μM vs AMP 30 μM; 125 μM ATP; ratio 90% or higher = direct activator. The method, then: The following biological test allows the determination of the efficacy of such compounds of formula (I) onto AMPK protein (recombinant α1β1γ2).
Human recombinant AMPK enzyme was expressed in E. Coli and was reactivated in vitro by LKB1 prior to enzyme activity determination.
AMPK enzyme activities were assayed by using A Delfia technology. AMPK enzyme activities were carried out in microtiter plates (50 mM Hepes buffer, pH 7.4 with 125 μM ATP respectively) in the presence of a synthetic peptide substrate (AMARAASAAALARRR, the “AMARA” peptide) and activators in serial dilutions. Reactions were initiated by the addition of AMPK (50-100 ng). Following mixing, the plates were incubated for 30 min at room temperature. Enzyme activity was assayed by using an anti-phosphoserine antibody to measure the quantity of phosphate incorporated into the AMARAA.
as §1
Activity: Ratio between the % of control (basal activity) of compound of formula (I) at 30 μM and the % of control (basal activity) of AMP (natural substrate) at 30 μM.
Compounds of formula (I) in the table II are considered as direct activator of AMPK if the ratio is 90% or higher.

The structures appear in SMILES notation.

T1 sequence (Q13131 whole entry): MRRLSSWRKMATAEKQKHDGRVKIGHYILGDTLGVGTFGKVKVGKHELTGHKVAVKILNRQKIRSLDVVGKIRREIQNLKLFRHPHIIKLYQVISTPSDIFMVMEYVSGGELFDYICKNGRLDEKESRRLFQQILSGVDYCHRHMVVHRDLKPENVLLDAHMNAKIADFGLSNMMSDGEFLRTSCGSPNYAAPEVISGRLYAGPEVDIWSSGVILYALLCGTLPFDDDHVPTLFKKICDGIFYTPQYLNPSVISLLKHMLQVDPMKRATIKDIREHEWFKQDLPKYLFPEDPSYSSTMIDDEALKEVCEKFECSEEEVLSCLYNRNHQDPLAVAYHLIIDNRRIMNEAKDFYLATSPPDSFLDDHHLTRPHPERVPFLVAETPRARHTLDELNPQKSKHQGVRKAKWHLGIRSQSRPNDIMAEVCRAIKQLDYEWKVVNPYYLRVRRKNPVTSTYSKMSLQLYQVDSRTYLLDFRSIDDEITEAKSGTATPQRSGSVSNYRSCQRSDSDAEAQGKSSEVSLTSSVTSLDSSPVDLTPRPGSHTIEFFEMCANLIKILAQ
T1 sequence (Q9Y478 whole entry): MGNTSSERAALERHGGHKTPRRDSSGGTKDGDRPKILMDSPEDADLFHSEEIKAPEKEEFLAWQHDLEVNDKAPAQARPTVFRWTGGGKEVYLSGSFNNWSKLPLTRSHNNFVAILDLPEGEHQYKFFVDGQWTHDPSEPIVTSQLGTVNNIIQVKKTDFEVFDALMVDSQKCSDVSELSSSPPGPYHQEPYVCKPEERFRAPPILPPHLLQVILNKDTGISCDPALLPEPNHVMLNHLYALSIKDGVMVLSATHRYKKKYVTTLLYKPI
T1 sequence (Q9UGJ0 whole entry partner): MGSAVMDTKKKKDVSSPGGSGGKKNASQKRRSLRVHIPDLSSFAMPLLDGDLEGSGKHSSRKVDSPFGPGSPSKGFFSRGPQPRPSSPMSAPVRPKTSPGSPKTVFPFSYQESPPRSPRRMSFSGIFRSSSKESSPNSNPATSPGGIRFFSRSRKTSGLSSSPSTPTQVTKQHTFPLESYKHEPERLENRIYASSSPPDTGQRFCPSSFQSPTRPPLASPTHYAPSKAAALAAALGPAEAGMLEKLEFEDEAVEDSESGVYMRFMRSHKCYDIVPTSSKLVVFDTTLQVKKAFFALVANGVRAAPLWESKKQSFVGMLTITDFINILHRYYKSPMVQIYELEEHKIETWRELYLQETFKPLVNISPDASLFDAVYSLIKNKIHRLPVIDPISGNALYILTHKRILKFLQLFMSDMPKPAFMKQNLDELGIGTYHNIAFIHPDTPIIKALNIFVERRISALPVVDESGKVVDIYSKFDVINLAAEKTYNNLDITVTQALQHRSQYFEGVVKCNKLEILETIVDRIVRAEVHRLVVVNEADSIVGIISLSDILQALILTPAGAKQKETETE

On to `N#Cc1sc2[nH]c(=O)c(-c3ccccc3)c(O)c2c1-c1ccccc1` [Compound 9, 2-cyano-3,5-diphenyl-4-hydroxy-6,7-dihydro-thieno[2,3-]pyridin-6-one], for which the “Activity (table III): Concentration of compound (I) for a glucose uptake equal or higher to glucose uptake induced by insulin (170 nM)” value (shortened to “Activity (table III): Concentration”) in the experiment with H-2 Kb cells is reported as “* (^+ or *concentration of compound (I) >10 micro Molar)”. Also, the “activity: Ratio between the % of control (basal activity) of compound of formula (I) at 30 μM and the % of control (basal activity) of AMP at 30 μM” value (shortened to “activity: Ratio between the % of control”) in experiment [1] is reported as 410%. The corresponding values for `Cc1sc2[nH]c(=O)c(-c3ccccc3)c(O)c2c1-c1ccccc1` [Compound 10] are “* (^+ or *concentration of compound (I) >10 micro Molar)” and 96%. As to `COc1ccc(-c2c(O)c3c(-c4ccccc4)c(C)sc3[nH]c2=O)cc1` [Compound 13], the “Activity (table III): Concentration” value in the experiment on H-2 Kb cells was “* (^+ or *concentration of compound (I) >10 micro Molar)”. In experiment [1], the “activity: Ratio between the % of control” value worked out at 126%. For the compound `Cc1sc2[nH]c(=O)c(-c3ccc(O)cc3)c(O)c2c1-c1ccccc1` [Compound 14], in the experiment with H-2 Kb cells, the “Activity (table III): Concentration” value is on record as “* (^+ or *concentration of compound (I) >10 micro Molar)”. The “activity: Ratio between the % of control” value in experiment [1] came out at 116%. Turning to `COc1cccc(-c2c(O)c3c(-c4ccccc4)c(C)sc3[nH]c2=O)c1` [Compound 15], in the experiment with H-2 Kb cells, the “Activity (table III): Concentration” value is given as “* (^+ or *concentration of compound (I) >10 micro Molar)”. For the same compound, the “activity: Ratio between the % of control” value in experiment [1] was 181%. The corresponding values for `COc1ccc(-c2c(O)c3c(-c4ccccc4)csc3[nH]c2=O)cc1` [Compound 19] are “* (^+ or *concentration of compound (I) >10 micro Molar)” and 96%. The corresponding values for `O=c1[nH]c2scc(-c3ccccc3)c2c(O)c1-c1ccc(O)cc1` [Compound 20] are “* (^+ or *concentration of compound (I) >10 micro Molar)” and 99%. On the same counts, the results for `CN(C)c1ccc(-c2c(O)c3c(-c4ccccc4)csc3[nH]c2=O)cc1` [Compound 22] are “** (^++ or **concentration of compound (I) ≦10 micro Molar)” and 121%. In the case of `COc1cccc(-c2c(O)c3c(-c4ccccc4)csc3[nH]c2=O)c1` [Compound 23], in the experiment on H-2 Kb cells, the “Activity (table III): Concentration” value was “* (^+ or *concentration of compound (I) >10 micro Molar)”. The “activity: Ratio between the % of control” value in experiment [1] was found to be 202%. The corresponding values for `O=c1[nH]c2scc(-c3ccc(Cl)cc3)c2c(O)c1-c1ccccc1` [Compound 26] are “* (^+ or *concentration of compound (I) >10 micro Molar)” and 128%. As for `O=c1[nH]c2scc(-c3ccc(F)cc3)c2c(O)c1-c1ccccc1` [Compound 27], the “Activity (table III): Concentration” value with H-2 Kb cells is reported as “* (^+ or *concentration of compound (I) >10 micro Molar)”. Also, the “activity: Ratio between the % of control” value in experiment [1] is 114%. As for `O=c1[nH]c2scc(-c3ccc4ccccc4c3)c2c(O)c1-c1ccccc1` [Compound 33], the “Activity (table III): Concentration” value in the experiment on H-2 Kb cells was “* (^+ or *concentration of compound (I) >10 micro Molar)”. In addition, the “activity: Ratio between the % of control” value in experiment [1] came out at 201%. On the same counts, the results for `O=c1[nH]c2scc(-c3ccc4ccccc4c3O)c2c(O)c1-c1ccccc1` [Compound 34] are “* (^+ or *concentration of compound (I) >10 micro Molar)” and 625%. For `Cc1ccc(-c2csc3[nH]c(=O)c(-c4ccccc4)c(O)c23)cc1` [Compound 35], in the experiment with H-2 Kb cells, the “Activity (table III): Concentration” value was “** (^++ or **concentration of compound (I) ≦10 micro Molar)”. Also, the “activity: Ratio between the % of control” value in experiment [1] worked out at 126%.

On to `O=c1[nH]c2scc(-c3ccc(C(F)(F)F)cc3)c2c(O)c1-c1ccccc1` [Compound 36], for which the “Activity (table III): Concentration” value in the experiment with H-2 Kb cells is recorded as “* (^+ or *concentration of compound (I) >10 micro Molar)”. Further, in experiment [1], the “activity: Ratio between the % of control” value worked out at 121%.

Turning to `Cc1ccc(-c2c(Cl)sc3[nH]c(=O)c(-c4cccc(C#N)c4)c(O)c23)c(O)c1` [Compound 101], in the experiment on H-2 Kb cells, the “Activity (table III): Concentration” value was “* (^+ or *concentration of compound (I) >10 micro Molar)”.

In the case of `Cc1ccc(-c2c(Cl)sc3[nH]c(=O)c(-c4ccccc4)c(O)c23)cc1O` [Compound 102], the “Activity (table III): Concentration” value in the experiment with H-2 Kb cells is listed as “** (^++ or **concentration of compound (I) ≦10 micro Molar)”. For `COc1cc(-c2c(Cl)sc3[nH]c(=O)c(-c4ccccc4)c(O)c23)ccc1C` [Compound 103], the “Activity (table III): Concentration” value in the experiment on H-2 Kb cells is “* (^+ or *concentration of compound (I) >10 micro Molar)”. With `CNC(=O)c1cccc(-c2c(O)c3c(-c4ccccc4)c(Cl)sc3[nH]c2=O)c1` [Compound 141], the “activity: Ratio between the % of control” value in experiment [1] stood at 403%. The same measure, in the same setting: as for `N=C(N)c1cccc(-c2c(O)c3c(-c4ccccc4)c(Cl)sc3[nH]c2=O)c1` [Compound 142], the figure is 126%; as for `CS(=O)(=O)c1cccc(-c2c(O)c3c(-c4ccccc4)c(Cl)sc3[nH]c2=O)c1` [Compound 145], 90%. For the compound `NC(=NO)c1cccc(-c2c(O)c3c(-c4ccccc4)c(Cl)sc3[nH]c2=O)c1` [Compound 146], in experiment [1], the “activity: Ratio between the % of control” value is 103%. On the same count and under the same terms, as for `CNC(=O)c1ccc(-c2c(O)c3c(-c4ccccc4)c(Cl)sc3[nH]c2=O)cc1` [Compound 150], the figure is 130%; as for `NC(=O)c1ccc(-c2c(O)c3c(-c4ccccc4)c(Cl)sc3[nH]c2=O)cc1` [Compound 151], 134%; as for `O=C(O)c1ccc(-c2c(O)c3c(-c4ccccc4)c(Cl)sc3[nH]c2=O)cc1` [Compound 153], 111%. For the compound `CS(=O)(=O)c1ccc(-c2c(O)c3c(-c4ccccc4)c(Cl)sc3[nH]c2=O)cc1` [Compound 154], in experiment [1], the “activity: Ratio between the % of control” value was found to be 131%.

On to `NC(=NO)c1ccc(-c2c(O)c3c(-c4ccccc4)c(Cl)sc3[nH]c2=O)cc1` [Compound 155], for which the “activity: Ratio between the % of control” value in experiment [1] is 95%. Turning to `O=c1[nH]c2sc(Cl)c(-c3ccccc3)c2c(O)c1-c1ccccc1OCc1ccccc1` [Compound 158], in experiment [1], the “activity: Ratio between the % of control” value came to 110%. With `O=c1[nH]c2sc(Cl)c(-c3ccccc3)c2c(O)c1-c1ccccc1O` [Compound 159], in experiment [1], the “activity: Ratio between the % of control” value was 164%.

For `O=c1[nH]c2sc(Cl)c(-c3ccc(F)cc3)c2c(O)c1-c1ccc(F)cc1` [Compound 203], the “activity: Ratio between the % of control” value in experiment [1] was found to be 251%. Regarding `Cc1ccc(-c2c(O)c3c(-c4ccc(F)cc4O)c(Cl)sc3[nH]c2=O)cc1` [Compound 214], the “activity: Ratio between the % of control” value in experiment [1] was 207%.
